Test results as given in patent US20020094522A1, “Means and methods for monitoring non-nucleoside reverse transcriptase inhibitor antiretroviral therapy and guiding therapeutic decisions in the treatment of HIV/AIDS” (priority 2000, published 2002).
Entries after “also recorded” stand apart in the source; their conditions may differ.

How the values were obtained:
[1] = test system: RTV-644 (patient sample 97-644 / 98-644); assay: Phenotypic susceptibility assay, RTV-644; assay type: cell-based, HIV-1; details: for susceptibility/resistance compared to reference virus: RTV-644, Example 5; for fold decrease in susceptibility (IC50): RTV-644, patient-derived pool
Description: (§1) The resistance test vectors containing a functional luciferase gene cassette were constructed and host cells were transfected with the resistance test vector DNA. The resistant test vectors contained patient-derived reverse transcriptase and protease sequences that were either susceptible or resistant to the antiretroviral agents, such as nucleoside reverse transcriptase inhibitors, non-nucleoside reverse transcriptase inhibitors and protease inhibitors. The resistance test vector viral particles produced by transfecting the resistance test vector DNA into host cells, either in the presence or absence of protease inhibitors, were used to infect target host cells grown either in the absence of NRTI or NNRTI or in the presence of increasing concentrations of the drug. The amount of luciferase activity produced in infected target host cells in the presence of drug was compared to the amount of luciferase produced in infected target host cells in the absence of drug. Drug resistance was measured as the amount of drug required to inhibit by 50% the luciferase activity detected in the absence of drug (inhibitory concentration 50%, IC50). The IC50 values were determined by plotting percent drug inhibition vs. log10 drug concentration.
(§2) Host cells were seeded in 10-cm-diameter dishes and were transfected several days after plating with resistance test vector plasmid DNA and the envelope expression vector. Transfections were performed using a calcium-phosphate precipitation procedure. The cell culture media containing the DNA precipitate was replaced with fresh medium, from one to 24 hours, after transfection. Cell culture media containing resistance test vector viral particles was harvested one to four days after transfection and was passed through a […] filter before being stored at −80° C. HIV capsid protein (p24) levels in the harvested cell culture media were determined by an EIA method as described by the manufacturer (SIAC; Frederick, Md.). Before infection, target cells (293 and 293/T) were plated in cell culture media. Control infections were performed using cell culture media from mock transfections (no DNA) or transfections containing the resistance test vector plasmid DNA without the envelope expression plasmid. One to three or more days after infection the media was removed and cell lysis buffer (Promega) was added to each well. […] The inhibitory effect of the drug was determined using the following equation: […]
Isolation of viral RNA and RT/PCR was used to generate a patient derived segment that comprised viral sequences coding for all of PR and amino acids 1-313 of RT. […] An IC50 was determined for each drug tested. […]

[2] = test system: RTV-652 (patient sample 98-652); assay type: cell-based, HIV-1; details: values <1 = increased susceptibility
Description: as §1, with “The amount of luciferase activity produced in infected target host cells in the presence of drug was compared to the amount of luciferase produced in infected target host cells in the absence of drug. Drug resistance was measured as the amount of drug required to inhibit by 50% the luciferase activity detected in the absence of drug (inhibitory concentration 50%, IC50).” left out
(§3) Host cells were seeded in 10-cm-diameter dishes and were transfected several days after plating with resistance test vector plasmid DNA and the envelope expression vector. […] HIV capsid protein (p24) levels in the harvested cell culture media were determined by an EIA method as described by the manufacturer (SIAC; Frederick, Md.). […] The inhibitory effect of the drug was determined using the following equation: […]
An IC50 was determined for the resistance test vector pool for each drug tested.

[3] = test system: RTV-1058 Clone 5 (L100I and K103N); assay: Phenotypic susceptibility assay, RTV-1058 clone 5; assay type: cell-based, HIV-1
Experimental: (§4) The resistance test vectors containing a functional luciferase gene cassette were constructed and host cells were transfected with the resistance test vector DNA. The resistant test vectors contained patient-derived reverse transcriptase and protease sequences that were either susceptible or resistant to the antiretroviral agents, such as nucleoside reverse transcriptase inhibitors, non-nucleoside reverse transcriptase inhibitors and protease inhibitors. […] The IC50 values were determined by plotting percent drug inhibition vs. log10 drug concentration.
as §3
(§5) A resistance test vector was constructed as described in Example 1 from a patient sample designated 98-1058. […] An IC50 was determined for the resistance test vector pool for each drug tested.

[4] = test system: RTV-1058 Clone 10 (L100I, K103N and Y188L); assay: Phenotypic susceptibility assay, RTV-1058 clone 10; assay type: cell-based, HIV-1
Experimental: as §4, §3, §5

[5] = test system: P225H-RTV (HIV reverse transcriptase P225H); assay: Phenotypic susceptibility assay, P225H-RTV; assay type: cell-based, HIV-1; details: P225H mutation alone
Experimental: Transfections were performed using a calcium-phosphate precipitation procedure. […] Cell lysates were assayed for luciferase activity (FIG. 3).
The drug inhibition curves are shown in (FIG. 3).
Resistance test vectors were constructed containing the P225H mutation alone and in combination with other known drug resistance mutations (K103N, Y181C) known to modulate the HIV susceptibility to NNRTIs. […] (Sakar G and Sommar SS (1994) Biotechniques 8(4), 404-407). […] The pattern of phenotypic susceptibility to the NNRTI, delavirdine in the P225H-RTV was altered as compared to wild type.

[6] = test system: RTV-268 (patient sample 97-268; P236L); assay: Phenotypic susceptibility assay, RTV-268; assay type: cell-based, HIV-1; details: RTV-268 / patient 268
Description: as §1, §2
where RLUluc [drug] is the relative light unit of luciferase activity in infected cells in the presence of drug and RLUluc is the Relative Light Unit of luciferase activity in infected cells in the absence of drug. IC50 values were obtained from the sigmoidal curves that were generated from the data by plotting the percent inhibition of luciferase activity vs. the log10 drug concentration.
A resistance test vector was constructed as described in Example 1 from a patient sample designated 97-268. […] Isolation of viral RNA and RT/PCR was used to generate a patient derived segment that comprised viral sequences coding for all of PR and amino acids 1-313 of RT. The patient derived segment was inserted into a indicator gene viral vector to generate a resistance test vector designated RTV-268. RTV-268 was then tested using the phenotypic susceptibility assay to determine accurately and quantitatively the level of susceptibility to a panel of anti-retroviral drugs. […] An IC50 was determined for each drug tested. Susceptibility of the patient virus to each drug was examined and compared to the susceptibility of a reference virus. […] The sample was examined further for genotypic changes associated with the pattern of susceptibility.

[7] = test system: patient 487 virus (RT M184V, K103N); assay: Phenotypic susceptibility assay, patient 487; assay type: cell-based, HIV; details: patient 487, FIG. 4
Description: as §1, with “The amount of luciferase activity produced in infected target host cells in the presence of drug was compared to the amount of luciferase produced in infected target host cells in the absence of drug. Drug resistance was measured as the amount of drug required to inhibit by 50% the luciferase activity detected in the absence of drug (inhibitory concentration 50%, IC50).” left out
as §3

[8] = test system: Y181C-RTV (HIV reverse transcriptase Y181C); assay: Phenotypic susceptibility assay, Y181C-RTV; assay type: cell-based, HIV-1
Description: as §1, with “The amount of luciferase activity produced in infected target host cells in the presence of drug was compared to the amount of luciferase produced in infected target host cells in the absence of drug. Drug resistance was measured as the amount of drug required to inhibit by 50% the luciferase activity detected in the absence of drug (inhibitory concentration 50%, IC50).” left out
as §3

L100I-K103N-Y188L-RTV = assay: Phenotypic susceptibility assay, L100I-K103N-Y188L-RTV; assay type: cell-based, HIV-1; details: site directed mutant
Experimental: as §4, §3
The mutations Y188L, L100I and K103N were introduced alone and in combinationn into resistance test vectors using the mega-primer method for site-directed mutagenesis (Sakar and Sommar, Ibid.). […] We determined the pattern of phenotypic susceptibility to the NNRTIs, delavirdine, nevlrapine and efavirenz, in all 6 vectors.

| Compound | susceptibility/resistance compared to reference virus [1] | fold decrease in susceptibility (IC50) [1] | fold change in susceptibility (IC50) [2] | fold loss of susceptibility (IC50) [3] | fold loss of susceptibility (IC50) [4] | change in susceptibility compared to wild type control RTV [5] | susceptibility/resistance compared to reference virus [6] | susceptibility/resistance profile [7] | fold loss of susceptibility compared to wild type control RTV ([8]; Y181C-RTV, site directed mutant) | fold loss of susceptibility compared to wild type control RTV ([8]; {}) | fold loss of susceptibility compared to wild type control RTV (L100I-K103N-Y188L-RTV) |
| --- | --- | --- | --- | --- | --- | --- | --- | --- | --- | --- | --- |
| CC(C)Nc1cccnc1N1CCN(C(=O)c2cc3cc(NS(C)(=O)=O)ccc3[nH]2)CC1 [delavirdine] | little or no resistance to delavirdine | 2.5 fold | 0.97 fold | 250 fold | greater than 250 fold | more susceptible to delavirdine than the wild type control RTV | resistant to delavirdine; also recorded: phenotypic resistance to delavirdine | increased resistance | – | – | – |
| O=C1Nc2ccc(Cl)cc2[C@@](C#CC2CC2)(C(F)(F)F)O1 [efavirenz] | – | – | – | – | – | – | – | – | 4 fold | 3 fold | – |
| Cc1ccnc2c1NC(=O)c1cccnc1N2C1CC1 [nevirapine] | resistant to nevirapine | 600 fold | 5 fold | 120 fold | greater than 800 fold | No significant change in nevirapine susceptibility | no change in nevirapine susceptibility; also recorded: nevirapine susceptibility was the same as wild type | increased resistance | – | – | greater than 800 fold |
